Measured values reported in PubChem BioAssay (NCI).
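Grown in 96-well plates, cells were treated for 48 hours with each compound at five concentrations. Insufficient inhibition: endpoint recorded as highest concentration tested. GI50 = concentration required for 50% inhibition of growth. TGI denotes the concentration required for complete inhibition of growth.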

How the values were obtained:
Experiment in all cases: inhibition of tumour cell growth, NCI panel, 48 h
TK-10 renal = system: TK-10 renal
NCI/ADR-RES ovarian = system: NCI/ADR-RES ovarian
NCI-H226 lung = system: NCI-H226 lung
HCC-2998 colon = system: HCC-2998 colon
NCI-H23 lung = system: NCI-H23 lung
OVCAR-5 ovarian = system: OVCAR-5 ovarian
SR leukemia = system: SR leukemia
EKVX NSCLC = system: EKVX NSCLC
SF-295 CNS = system: SF-295 CNS
SK-OV-3 ovarian = system: SK-OV-3 ovarian

SMILES | GI50 (TK-10 renal) | TGI (TK-10 renal) | GI50 (NCI/ADR-RES ovarian) | TGI (NCI/ADR-RES ovarian) | GI50 (NCI-H226 lung) | TGI (NCI-H226 lung) | GI50 (HCC-2998 colon) | TGI (HCC-2998 colon) | GI50 (NCI-H23 lung) | TGI (NCI-H23 lung) | GI50 (OVCAR-5 ovarian) | TGI (OVCAR-5 ovarian) | GI50 (SR leukemia) | TGI (SR leukemia) | GI50 (EKVX NSCLC) | TGI (EKVX NSCLC) | GI50 (SF-295 CNS) | TGI (SF-295 CNS) | TGI (SK-OV-3 ovarian) | GI50 (SK-OV-3 ovarian)
C=C(C)[C@@H]1C/C=C(/CO)CC[C@H]2O[C@]2(C)CC/C=C(\C)CC1 | 9740 nM | 32.8 µM | 29.9 µM | > 100 µM | 19700 nM | 43.7 µM | 19800 nM | 40.4 µM | 20700 nM | 66.9 µM | 24700 nM | > 100 µM | 17200 nM | 38.6 µM | 12900 nM | 36 µM | 11600 nM | 24.5 µM |  | 
Nc1ncn(C2OC(COP(=O)(O)O)C(O)C2O)c(=O)n1 (configuration not stated) |  | > 100 µM |  | > 100 µM |  | > 100 µM |  | > 100 µM |  | > 100 µM |  | > 100 µM |  | > 100 µM |  | > 79 µM |  | > 100 µM | > 100 µM | 
O=C1Nc2ccccc2/C1=C\c1cccc(/C=C2/C(=O)Nc3ccccc32)n1 | 416 nM | 1.41 µM | 0.689 µM | 6.47 µM | 1530 nM | 5.13 µM | 615 nM | 1.77 µM | 855 nM | 2.43 µM | 888 nM | 2.4 µM | 231 nM | 4.88 µM | 692 nM | 8.74 µM | 499 nM | 2.24 µM | 2.76 µM | 1210 nM
COC12C=C/C(=C(/C(=O)OCCSc3ccnn3C)C(=O)CCCCCCCCC3(OC)C=C/C(=C(/C(=O)OCCSc4ccnn4C)C(=O)CCCCCCCC1)O3)O2 | 2350 nM | > 32.5 µM | 1.64 µM | > 32.5 µM | 827 nM | 1.76 µM | 584 nM | 1.11 µM | 854 nM | 2.37 µM | 1730 nM | > 32.5 µM | 886 nM | > 32.5 µM | 1150 nM | 12.1 µM | 948 nM | 2.93 µM | 24.9 µM | 1660 nM
CN(C)C[C@H]1CCn2c(c(C3=C(c4cn(C)c5ccccc45)C(=O)NC3=O)c3ccccc32)C1 | 3610 nM | 8.77 µM | 5.67 µM | 14.2 µM | 5130 nM | 14.1 µM | 4860 nM | 9.16 µM | 6580 nM | 15 µM | 5350 nM | 17 µM | 4260 nM | 11.1 µM |  |  | 5210 nM | 11.3 µM | 11.5 µM | 5170 nM
Cc1c(NC(=O)CCl)c(=O)oc2c(C)c3occc(=O)c3cc12 |  | 42.6 µM |  | 60.8 µM |  |  |  | 32.8 µM |  |  |  | 32.4 µM |  | 58 µM |  | 38.2 µM |  | 25.2 µM | 32.8 µM | 
CCCCCCCCCCCC[N+](C)(C)Cc1ccccc1 |  |  | 41.9 µM | > 100 µM | 2840 nM | 18.6 µM |  |  | 2500 nM | 10.2 µM | 2860 nM | 13.5 µM | 1830 nM | 5.16 µM |  |  | 2820 nM | 12.2 µM | 10.7 µM | 3050 nM
Cc1cn(CCC(N)C(=O)O)c(=O)[nH]c1=O (configuration not stated) |  | > 100 µM |  | > 100 µM |  | > 100 µM |  |  |  | > 100 µM |  | > 100 µM |  | > 100 µM |  | > 100 µM |  | > 100 µM | > 100 µM | 
